Measured values reported in patent US12129235B2, “TSPO binders” (The University Court of the University of Glasgow, priority 2018, dated 2024).

Experiment: Radiometabolite and arterial blood analysis
Format: in vivo, rats
Settings: rat; 120 minutes post-injection
Protocol: In a separate set of experiments (radiometabolite studies), the femoral artery was cannulated for blood sampling and the radiotracer was administered i.v. via tail vein. Surgical cannulation of femoral vein and artery was performed as follows: polyethylene catheters (PE50) filled with heparinized saline (20 IU/mL) were inserted into the left femoral artery or vein with the help of a stereomicroscope and securely fastened with ligatures (6-0 silk thread). Catheters were held in place with surgical glue. Body temperature was maintained by heated scanner bed or heated mat and monitored by rectal thermometer. Vital signs, including heart rate and respiration rate were monitored continuously during the experiments.
Arterial blood samples were collected at 2, 5, 10, 20, 30, 60 and 120 minutes post-radiotracer administration (69.8±9.2 MBq, n=17 rats). […] Following blood collection, all samples were kept on ice until analyzed. Radioactivity in whole blood and plasma was assessed using a well-type γ-counter using a 400-1400 keV window (Perkin Elmer Wizzard2, USA). Plasma samples (400 μL) were processed by acetonitrile denaturation and analyzed by HPLC (Ultimate2000, ThermoFisher, UK) on a Luna C18(2) column (Luna C18(2), 10×250 mm, 10 μm, Phenomenex, UK) with a mobile phase of acetonitrile/water 70/30 at a flow rate of 4 mL/min to estimate the parent fraction. […]

parent in arterial blood: approximately 70%
Structure (SMILES): CC[C@@H](C)N(C)C(=O)c1nc2ccccc2c(-c2ccccc2)c1C[18F] [^18F-LW223, (R)-(N-sec-Butyl)-3-[19-fluoro]-methyl-N-methyl-4-phenylquinoline-2-carboxamide]
